Source: patent publication EP4512427A1, “ANTIBODY-DRUG CONJUGATES BASED ON MOLECULAR GLUE DEGRADERS AND USES THEREOF” (Mablink Bioscience, priority 2023, dated 2025)

How the values were obtained:
Test in all cases: In vitro cytotoxicity assay (MTT)
MDA-MB-231 = type: cell-based, human; details: 6 days incubation
Experimental: (§1) In vitro cytotoxicity of compounds of the disclosure was assessed on several cancerous human cell lines. Cells were plated in 96-well plates at an appropriate density depending on the cell line (between 1000 and 10 000 cells/well in 100µL of appropriate culture media) and incubated at 37°C for 24 hours. Serial dilutions of the tested compound previously dissolved in culture media (50µL) were added, and incubation was carried at 37°C out for 6 days. MTT (5mg/mL in PBS, 20µL, Sigma-Aldrich) was added into the wells, and incubation was continued for 1 to 4 hours at 37°C. Culture media was then carefully removed, and well content was homogeneously dissolved with acidified isopropanol. Absorbance values were measured on a microplate reader using a wavelength of 570 nm (with a reference wavelength of 690 nm). The IC50 concentration values compared to untreated control cells were determined using inhibition dose response curve fitting (GraphPad Prism 9). Exatecan mesylate (cat#HY-13631A) and CR8 (CAS# 294646-77-8; cat#HY-18340) were purchased from MedChemExpress (China).

JIMT-1 = type: cell-based, human; details: 6 days incubation
Experimental: as §1

MDA-MB-453 = type: cell-based, human; details: 6 days incubation
Experimental: as §1

BT-474 = type: cell-based, human; details: BT-474, 6 days incubation, MTT
Experimental: as §1

SKBR-3 = type: cell-based, human; details: 6 days incubation
Experimental: as §1

NCI-N87 = type: cell-based, human; details: 6 days incubation
Experimental: as §1

BXPC3 = type: cell-based; details: Homo sapiens, BXPC-3, 144 h, 6 days incubation
Experimental: as §1

MCF-7 = type: cell-based; details: Homo sapiens, MCF7, 144 h, 6 days incubation
Experimental: as §1

HT-29 = type: cell-based; details: Homo sapiens, 144 h, 6 days incubation
Experimental: as §1

[1] = Homo sapiens, MDA-MB-231, 144 h
[2] = Homo sapiens, MDA-MB-453, 144 h

| Structure (SMILES) | IC50 (MDA-MB-231; [1]) [nM] | IC50 (JIMT-1; Homo sapiens, 144 h) [nM] | IC50 (MDA-MB-453; [2]) [nM] | IC50 (BT-474; Homo sapiens, BT-474, 144 h) [nM] | IC50 (SKBR-3; Homo sapiens, SK-BR-3, 144 h) [nM] | IC50 (NCI-N87; Homo sapiens, NCI-N87, 144 h) [nM] | IC50 (BXPC3) [nM] | IC50 (MCF-7) [nM] | IC50 (HT-29) [nM] | IC50 (MDA-MB-231) [nM] | IC50 (JIMT-1) [nM] | IC50 (MDA-MB-453) [nM] | IC50 (BT-474) [nM] | IC50 (SKBR-3) [nM] | IC50 (NCI-N87) [nM] |
| --- | --- | --- | --- | --- | --- | --- | --- | --- | --- | --- | --- | --- | --- | --- | --- |
| Brc1cnn2c(NCc3ccc(-c4ccccn4)cc3)nc(NC3CCCNC3)nc12 (racemic) [Compound 2606] | 0.46 | 0.88 | 0.64 | 0.92 | 1.23 | 0.77 | 1.16 | 6.88 | 0.13 |  |  |  |  |  |  |
| N#Cc1cnn2c(NCc3ccc(-c4ccccn4)cc3)nc(N[C@H]3CC[C@H](N)CC3)nc12 [Compound 2478] |  |  |  |  |  |  |  |  |  | 1.64 | 1.18 | 1.34 | 1.72 | 17.6 | 6.88 |
| N[C@H]1CC[C@H](Nc2nc(Nc3ccc(CN4CCOCC4)cc3)n3ncc(Br)c3n2)CC1 [Compound 2533] | > 100 | > 100 | > 100 | > 100 | > 100 | > 100 |  |  |  |  |  |  |  |  |  |
| O[C@H]1CN[C@H](CNc2nc(NCc3ccc(-c4ccccn4)cc3)n3ncc(Br)c3n2)C1 [Compound 2538] | 8.75 | 5.13 | 8.12 | 6.54 | 39.1 | 21.6 |  |  |  |  |  |  |  |  |  |
| Brc1cnn2c(Nc3ccc(CN4CCOCC4)cc3)nc(NC3CCNCC3)nc12 [Compound 2554] |  |  |  |  |  |  |  |  |  | > 100 | > 100 | > 100 | > 100 | > 100 | > 100 |
| NC1CCN(c2nc(NCc3ccc(-c4ccccn4)cc3)n3ncc(Br)c3n2)CC1 [Compound 2559] | 1.35 | 0.41 | 1.52 | 2.63 | 3.73 | 1.32 | 1.63 | 12.8 | 0.21 |  |  |  |  |  |  |
| Brc1cnn2c(NCc3ccc(-c4ccccn4)cc3)nc(NCC3CCNCC3)nc12 [Compound 2569] | 11.2 | 6.7 | 12.8 | 15.2 | 62.6 | 19.7 |  |  |  |  |  |  |  |  |  |
| Nc1ccc(Nc2nc(NCc3ccc(-c4ccccn4)cc3)n3ncc(Br)c3n2)cc1 [Compound 2584] | 7.17 | 7.61 | 12.3 | 9.72 | 25.9 | 9.44 |  |  |  |  |  |  |  |  |  |
| CNCCNc1nc(NCc2ccc(-c3ccccn3)cc2)n2ncc(Br)c2n1 [Compound 2586] | 1.44 | 1.13 | 2.47 | 1.73 | 6.59 | 3.14 | 2.44 | 33.9 | 0.45 |  |  |  |  |  |  |
| N[C@H]1CC[C@H](Nc2nc(NCc3ccc(-c4ccccn4)cc3)n3ncc(I)c3n2)CC1 [Compound 2590] | 0.74 | 0.29 | 1.76 | 1.33 | 2.55 | 2.42 |  |  |  |  |  |  |  |  |  |
| Brc1cnn2c(NCc3ccc(-c4ccccn4)cc3)nc(N3CCNCC3)nc12 [Compound 2601] | 0.86 | 0.45 | 1.92 | 1.86 | 3.61 | 2.7 | 1.72 | 15.4 | 0.13 |  |  |  |  |  |  |
| Brc1cnn2c(NCc3ccc(-c4ccccn4)cc3)nc(N3CCC(N4CCNCC4)CC3)nc12 [Compound 2622] | 12.7 | 4.84 | 21.1 | 13.5 | 2.24 | 3 | 36.1 | > 100 | 8.25 |  |  |  |  |  |  |
| N[C@H]1CC[C@H](Nc2nc(NCc3ccc(-c4ccccn4)cc3)n3ncc(Cl)c3n2)CC1 [Compound 2629] | 0.66 | 0.11 | 0.77 | 1.75 | 0.27 | 0.94 | 1.17 | 3.91 | 0.36 |  |  |  |  |  |  |
| N[C@H]1CC[C@H](CNc2nc(NCc3ccc(-c4ccccn4)cc3)n3ncc(Br)c3n2)CC1 [Compound 2635] | 12.9 | 3.52 | 17.9 | 23.1 | 0.83 | 15.9 | 39.7 | > 100 | 8.93 |  |  |  |  |  |  |
| NCCNc1nc(NCc2ccc(-c3ccccn3)cc2)n2ncc(Br)c2n1 [Compound 2638] | 0.3 |  | 0.88 | 0.78 | 0.82 | 0.42 |  |  |  |  |  |  |  |  |  |
| Brc1cnn2c(NCc3ccc(-c4ccccn4)cc3)nc(N[C@@H]3CCNC3)nc12 [Compound 2656] | 0.65 |  | 1.13 | 2.52 | 0.17 | 1.42 |  |  |  |  |  |  |  |  |  |
| Brc1cnn2c(NCc3ccc(-c4ccccn4)cc3)nc(N[C@H]3CCNC3)nc12 [Compound 2657] |  |  |  |  |  |  |  |  |  | 0.56 |  | 0.77 | 1.71 | 0.13 | 0.43 |
| NCCCNc1nc(NCc2ccc(-c3ccccn3)cc2)n2ncc(Br)c2n1 [Compound 2658] | 1.98 |  | 7.84 | 4.57 | 0.77 | 6.43 |  |  |  |  |  |  |  |  |  |
| Brc1cnn2c(NCc3ccc(-c4ccccn4)cc3)nc(N[C@@H]3CCCNC3)nc12 [Compound 2659, 8-bromo-N2-[(3R)-piperidin-3-yl]-N4-{[4-(pyridin-2-yl)phenyl]methyl}pyrazolo[1 ,5-a][1 ,3,5]triazine-2,4-diamine] | 0.26 |  | 0.4 | 0.72 |  | 0.34 |  |  |  |  |  |  |  | 0.72 |  |
| Brc1cnn2c(NCc3ccc(-c4ccccn4)cc3)nc(N[C@@H]3CCCNC3)nc12 [Compound 2660, 8-bromo-N2-[(3R)-piperidin-3-yl]-N4-{[4-(pyridin-2-yl)phenyl]methyl}pyrazolo[1,5-a][1 ,3,5]triazine-2,4-diamine] |  |  |  |  |  |  |  |  |  | 0.43 |  | 0.68 | 1.25 | 0.11 | 0.49 |
| N[C@H]1CC[C@H](Nc2nc(NCc3ccc(-c4ccccn4)cc3)n3ncc(Br)c3n2)C1 [Compound 2669] | 0.44 |  | 0.59 | 1.75 | 0.67 | 0.39 |  |  |  |  |  |  |  |  |  |
| N[C@H]1CCCC[C@H]1Nc1nc(NCc2ccc(-c3ccccn3)cc2)n2ncc(Br)c2n1 [Compound 2672] | 0.46 |  | 0.76 | 2.12 | 0.24 | 0.55 |  |  |  |  |  |  |  |  |  |
